Here are results for one compound from publication PMC9887927, “Biochemical characterization and insights into the potency of the acidic Aspergillus niger NRC114 purified α-galactosidase in removing raffinose family oligosaccharides from soymilk yogurt” (BMC Biotechnology, 2023).

For the assay, the system named is T1, Aspergillus niger NRC114 α-galactosidase.
T1 construct: gene aglB; native secreted enzyme purified from culture filtrate (ammonium sulfate, Sephadex G-100, DEAE-Sephadex A-50); 64 kDa monomer by SDS-PAGE
In words: p-nitrophenol release, absorbance; Lineweaver-Burk plot. Conditions: pH 3.5, 60 °C; substrate range printed as 0.04–0.8 µM; printed unit doubtful (probably mM: compared with mM literature values, assay stock 4 mM). The class given is biochemical.

Consider `O=[N+]([O-])c1ccc(O[C@H]2O[C@H](CO)[C@H](O)[C@H](O)[C@H]2O)cc1` [p-nitrophenyl-α-D-galactopyranoside], for which the Km was 0.000401 mM.

By Km is commonly meant the concentration of substrate that gives half-maximal velocity.
